The record followed here is US9303249B2, “High concentration α-glucosidase compositions for the treatment of Pompe disease” (Amicus Therapeutics, Inc., priority 2012, dated 2016).

Where a name gives a salt, the structure may show the parent alone.

Series [1] deals with T1, GAA (Homo sapiens, UniProt P10253). Nature of the series: rhGAA enzyme inactivation in whole blood at 37° C. The class given is in vitro ADME. Set-up: purchased Genzyme Corp; host or cells: Chinese hamster ovary cell line. To be noted: for enzyme inactivated: whole blood 37° C., no 1-DNJ-HCl. Here is the method:
Aliquots were collected at 0, 2, 4, 8 and 24 hrs and centrifuged to obtain plasma. These plasma samples were then diluted in potassium acetate buffer (pH 4.0) and assayed for GAA activity using the 4-methylumbeliferyl-α-glucose (4-MUG) fluorogenic substrate. The measured GAA activity for individual samples at each time point was normalized to the 0 hr and expressed as % of initial activity. Data from 4 independent experiments were analyzed to obtain the mean (and standard deviation) and plotted versus time to assess the loss of enzyme activity over this time course.
Aliquots were collected at 0, 3 and 6 hrs and centrifuged to obtain plasma. These plasma samples were then diluted in potassium acetate buffer (pH 4.0) and assayed for GAA activity using the 4-methylumbeliferyl-α-glucose (4-MUG) fluorogenic substrate. The measured GAA activity for individual samples at each time point was normalized to the 0 hr and expressed as % of initial activity.
Moreover, since Myozyme® has a long plasma half-life (reported to be more than 3 hrs), there is a high probability that an appreciable amount of the enzyme remains in the circulation many hours after the infusion that would also be prone to inactivation.
Based on human plasma PK data, these concentrations are readily obtainable in the clinic.

Series [2] concerns the target T1, GAA. Nature of the series: GAA levels in cell lines derived from late-onset Pompe patients. The conditions noted are these: cell lines with IVS 1 (−13 T>G) splicing mutation. The class given is cell-based. Set-up: endogenous in cells.
In series [3] the target is T2, recombinant human GAA (Myozyme®) (Homo sapiens, UniProt P10253).
T2 construct: purchased Genzyme Corp; host or cells: Chinese hamster ovary cell line
The series can be described thus: SYPRO Orange thermal stability assay. The format is binding. How it is done:
The thermal stability assay utilizes heat to induce protein denaturation, which is monitored using a SYPRO Orange dye that fluoresces upon binding to hydrophobic amino acids (which are not exposed in a folded protein).
Denaturation is monitored using a SYPRO Orange dye that fluoresces upon binding to hydrophobic amino acids (which are not exposed in a folded protein).
The thermal stability was performed at pH 7.4 for two formulations, which corresponds to the pH of the ER.

Series [4] can be described thus: Circulating rhGAA after subcutaneous DNJ co-formulated with Myozyme® (FIG. 14). The class given is in vivo. The conditions noted are these: DNJ co-formulated with 20 mg/kg Myozyme® vs Myozyme® without DNJ.
The nature of series [5]: Aggregation of 25 mg/mL Myozyme® at pH 7.4 and 37° C. (Example 10). The class given is physicochemical. To be noted: 1 mM DNJ, PBS pH 7.4, 4 weeks at 37° C. How it is done:
Aggregation was assessed after a 4 week incubation period.
A liquid formulation comprising DNJ and GAA was prepared by dissolving DNJ in water to achieve a concentration of 10 mM DNJ. GAA was reconstituted in 1.8 ml water, and dialyzed overnight in phosphate buffered-saline (pH 7.4). […] of DNJ (10 mM) was then be added to 400 microliters of GAA, such that the GAA was at a concentration of 25 mg/ml.
25 mg/mL Myozyme® was incubated with or without 1 mM DNJ in phosphate-buffered saline at pH 7.4. Aggregation of Myozyme® was assessed after incubation for 4 weeks at 37° C.

Series [6] concerns GAA KO mice. Nature of the series: Tissue glycogen reduction in GAA KO mice, Myozyme® IV with or without oral 1-DNJ-HCl (Example 9). The format is in vivo, mouse. How it is done:
Twelve-week old male GAA KO mice were administered a single dose of Myozyme® (40 mg/kg) via bolus tail vein injection every other week for 8 weeks. To prevent anaphylaxis, before the third and fourth Myozyme® injection, diphenhydramine (10 mg/kg intraperitoneally) was administered 10 min before Myozyme® injection. […] Mice were euthanized 14 days after the last Myozyme® administration.
Glycogen levels in heart, diaphragm, soleus, and quadriceps were then measured. […] Briefly, homogenates were prepared by homogenizing ˜50 mg tissue for 3-5 seconds on ice with a microhomogenizer in 200 μL deionized water. Supernatants were heat denatured (99° C. for 10 min) to remove endogenous amyloglucosidase activity. Denatured lysates (4 μL) were then analyzed in duplicate by addition of 36 μL water with and without 10 μL of 800 U/mL of amyloglucosidase (Sigma Aldrich, St. Louis, Mo.) and incubated for 1 hour at 50° C. The reaction was stopped by inactivation at 100° C. for 10 min. Finally, 200 μL of glucose reagent (Sigma) was added absorbance read at 340 nm on Spectramax. A standard curve ranging from 5 μg/mL to 400 μg/mL Type III rabbit liver glycogen (Sigma) was run each day for conversion of absorbance to absolute glycogen units. Simultaneously, the amount of protein was determined in tissue homogenates using the Micro BCA Protein Assay (Pierce, Rockford, Ill.) following the manufacturer's instructions. The glycogen content of each sample was normalized to protein, and data were finally expressed as micrograms of glycogen per milligram of protein (μg/mg protein).

Series [7] relates to GAA KO mice. The series can be described thus: Tissue glycogen reduction after repeat IV Myozyme® in GAA KO mice. The format is in vivo, mouse. To be noted: 20 mg/kg IV bolus, 4 administrations at two-week intervals, 14 days after last. An excerpt: (§1) Mice were euthanized 3 days after the last administration for tissue GAA activity measurement and 14 days after the administration for glycogen measurement. Data was compared with uptake (on day 3) and glycogen reduction (on day 14) of historical Lumizyme® IV alone study. Tissue samples included heart, diaphragm, tongue, ventral skin (non-injection site), skin from the hind limb injection site, skin from the shoulder SQ injection site, left and right limb muscles (biceps, triceps, quadriceps, soleus and gastrocnemius). GAA activities in tissues were determined using a 4-MUG fluorogenic substrate assay. Glycogen levels were determined using a glycogen assay (see Example 9 for method).

Series [8] has as its system GAA KO mice. The series can be described thus: Tissue rhGAA activity after repeat IV Myozyme® in GAA KO mice. The format is in vivo, mouse. To be noted: 20 mg/kg IV bolus, 4 doses at 2 week intervals, 3 days after last dose.
Description: as §1
For both studies, the enzyme activities in tissues were assessed three days after the last (fourth) administration.

The conditions of series [9]: rat, iv. How it is done:
Four groups of rats were administered one of the following dosing regimens:
(2) 10 mg/kg of rhGAA+Water;

For `OC[C@H]1NC[C@H](O)[C@@H](O)[C@@H]1O` [1-DNJ-HCl, 1-deoxynojirimycin hydrochloride], at GAA [1] (2.5 μM 1-DNJ-HCl, whole blood, 6-hr time course), the “loss of rhGAA activity” value is on record as ~20%. Also, the “rhGAA activity in whole blood” value at GAA [1] (50 μM 1-DNJ-HCl, 37° C., up to 24 hrs) is listed as “remained completely active throughout the study”. For the same compound, at GAA [2], the GAA levels result is “increased GAA levels alone and in combination with hrGAA”. Besides, the “thermal stability of rhGAA (heat to denature)” value in [3] (100 μM 1-DNJ-HCl, pH 7.4, vs formulation without ASSC) is on record as “required significantly more heat to denature”. Further, the “GAA thermostability (melting temperature)” value in [3] (Myozyme® plus 1, 10, 100 μM 1-DNJ-HCl) was “increases GAA thermostability”.

Turning to `OC[C@H]1NC[C@H](O)[C@@H](O)[C@@H]1O` [DNJ, 1-deoxynojirimycin], the “circulating levels of rhGAA” value in series [4] is reported as “increased the circulating levels of rhGAA”. Moreover, in series [5], the “aggregation of Myozyme®” value is listed as “reduced aggregation of Myozyme®”.

As for “Myozyme®: alglucosidase alfa, recombinant human acid α-glucosidase from Genzyme Corporation”, the “Glycogen reduction relative to untreated mice” value is given as 41±4% in the series with GAA KO mice [6] (diaphragm, same regimen); 93±1% in the series on GAA KO mice [6] (heart, Myozyme® 40 mg/kg IV every other week for 8 weeks, +/- 30 mg/kg oral 1-DNJ-HCl); 18±4% with GAA KO mice [6] (quadriceps, same regimen); 69±3% in the series with GAA KO mice [6] (soleus, same regimen). The “Glycogen reduction (% of untreated)” value in the series on GAA KO mice [7] (Biceps) is reported as 5%; in the series on GAA KO mice [7] (Diaphragm) it was 19%; in the series with GAA KO mice [7] (Gastrocnemius), 15%; with GAA KO mice [7] (Heart), 51%; with GAA KO mice [7] (Quadriceps), 8%; with GAA KO mice [7] (Skin, 20 mg/kg) it was “No reduction”. Also, the “Glycogen reduction (% of untreated)” value in the series with GAA KO mice [7] (Skin, listed as rhGAA (Myozyme), 20 mg/kg) is recorded as “No”; in the series with GAA KO mice [7] (Tongue) it was 54%; with GAA KO mice [7] (Triceps), 4%. Further, the rhGAA activity uptake is 10.1 nmol/mg/h in the series on GAA KO mice [8] (Biceps); 7.1 nmol/mg/h with GAA KO mice [8] (Diaphragm); 17.9 nmol/mg/h in the series with GAA KO mice [8] (Gastrocnemius); 1.8 nmol/mg/h with GAA KO mice [8] (Heart); 6.9 nmol/mg/h with GAA KO mice [8] (Quadriceps); 27.1 nmol/mg/h in the series with GAA KO mice [8] (Skin). Further, the rhGAA activity uptake was found to be 8.0 nmol/mg/h with GAA KO mice [8] (Soleus, 20 mg/kg); 8 nmol/mg/h in the series on GAA KO mice [8] (Soleus, listed as rhGAA (Myozyme), 20 mg/kg); 12.4 nmol/mg/h in the series on GAA KO mice [8] (Tongue); 3.9 nmol/mg/h in the series on GAA KO mice [8] (Triceps).

On to “rhGAA: recombinant human acid α-glucosidase (e.g., Myozyme®)”, for which the “in vivo half life of rhGAA” value in series [9] was 1.4 ± 0.2 h. Besides, the enzyme inactivated result with GAA [1] (by 4 hrs) is listed as “approximately 40%”; with GAA [1] (by 8 hrs) it was ~70%; with GAA [1] (by 24 hrs) it was ~100%.
